Reference: patent US20240327376A1, “PICOLINAMIDE COMPOUNDS AS SELECTIVE PHD1 INHIBITORS, COMPOSITIONS, AND METHODS OF USE” (Akebia Therapeutics, Inc., priority 2021, published 2024)

Target: T1, full-length human PHD1 (selectivity versus full-length human PHD2) (Homo sapiens, UniProt Q96KS0)
T1 construct: purchased Active Motif (Carlsbad, CA, USA) 81064; host or cells: baculovirus expression system
Experiment: TR-FRET assay of PHD enzymes (IC50; Ki by Cheng-Prusoff; selectivity as ratio of Kis)
Format: biochemical
Details: ratio of Kis in the PHD1 and PHD2 TR-FRET assays; Ki=IC50/(1+[2-OG]/Km), 1 uM 2-OG
Description: Time-resolved fluorescence resonance energy transfer (TR-FRET) assay was utilized to determine the enzymatic half maximal inhibitory concentration (IC50) value of PHD inhibitors against the full-length human prolyl-4-hydroxylase domain (PHD) enzymes, PHD1 and PHD2. The TR-FRET assay was developed based on the specific binding of hydroxylated HIF-1α peptide with the complex formed by VHL, EloB and EloC (VBC), to generate a fluorescent signal. Terbium (Tb)-Donor (monoclonal antibody anti-6His-Tb-cryptate Gold) and D2-acceptor (streptavidin [SA]-D2) of TR-FRET are linked to the VBC complex and to HIF-1a peptide, respectively. The VBC complex binds specifically to the HIF-1a peptide when it is hydroxylated, allowing energy transfer from TR-FRET donor to acceptor (FIG. 1).
TR-FRET Reagents. Monoclonal antibody anti-6His-Tb-cryptate Gold (catalog #61HI2TLA) and streptavidin (SA)-D2 (catalog #610SADLA) were purchased from CisBio International (Bedford, MA, USA).
N-terminus biotinylated HIF-1α C35 synthetic peptide representing amino acids 547 to 581 and including the proline 564 PHD2 hydroxylation site was purchased from California Peptide Research (Salt Lake City, UT, USA).
VBC complex. His-tagged recombinant VHL protein, EloB, EloC complex (His-VBC) was supplied by Axxam (Milan, Italy). Recombinant human VHL (National Center for Biotechnology Information [NCBI] accession number NP_00542.1) contained a His tag at the C-terminus of amino acids 55 to 213 and is referred to as VHL-His. VHL-His was co-expressed in E. coli with full-length human EloB (NCBI accession number Q15370.1) and full-length human EloC (NCBI accession number Q15369.1) and purified by affinity chromatography on a nickel-nitrilotriacetic acid (Ni-NTA) column as the His-VBC complex. Purity (˜80%) was assessed by sodium dodecyl sulfate polyacrylamide gel electrophoresis (SDS-PAGE).
PHD1. Recombinant human PHD1 protein (catalog #81064, Lot #24717001) was purchased from Active Motif (Carlsbad, CA, USA). PHD1 was expressed in a baculovirus expression system as the full-length protein (NCBI accession number NP_542770.2) with an N-terminal FLAG tag (molecular weight 44.9 kDa). Purity (>90%) was assessed by SDS-PAGE.
PHD2. The full-length human PHD2 enzyme was produced with a baculovirus infected insect cell (BIIC) expression system by Beryllium (Bedford, MA, USA). The PHD2 construct contained amino acids 1 to 426 of PHD2 (UniProt Knowledgebase[UniProtKB]/Swiss-Prot accession number Q9GZT9.1), and a His tag and a Tobacco Etch Virus (TEV) protease cleavage site at the N-terminus. The construct was expressed in Sf9 insect cells, purified by Ni-NTA column and digested with TEV protease to remove the His tag.
TR-FRET Assay Procedure. PHD inhibitor compound was preincubated with PHD enzyme in a 10 μL reaction volume in white 384-well Optiplate microplates (catalog #6007290, Perkin Elmer, Waltham, MA, USA). For this, 5 μL of PHD inhibitor compound was serially diluted with dilution buffer (50 mM HEPES [4-(2-hydroxyethyl)-1-piperazineethanesulfonic acid] pH 7.5, 50 mM sodium chloride [NaCl], 0.01% Tween-20, 0.01% purified bovine serum albumin [BSA]) and mixed with 5 μL PHD enzyme mix prepared as a 4× concentrate in the dilution buffer containing PHD enzyme (60 nM PHD1, 20 nM PHD2, 140 nM PHD3), 40 μM ferrous ammonium sulfate (FAS), 4 mM sodium (Na) ascorbate. The plates were incubated for 30 minutes at room temperature without rotation.
Five microliters of the VBC/anti-6His-Tb-cryptate Gold mix prepared as a 4× concentrate in dilution buffer containing 20 nM His-VBC, 1.32 nM monoclonal antibody anti-6His-Tb-cryptate Gold was then added. This step was followed immediately by the addition of […] of the HIF-1a C35 substrate mix prepared as a 4× concentrate in the dilution buffer containing 120 nM biotin-labeled HIF-1a C35, 132 nM SA-D2, 4 μM 2-oxoglutarate (2-OG) to reach a final reaction volume of 20 μL. […]

T1 sequence (Q96KS0 whole entry): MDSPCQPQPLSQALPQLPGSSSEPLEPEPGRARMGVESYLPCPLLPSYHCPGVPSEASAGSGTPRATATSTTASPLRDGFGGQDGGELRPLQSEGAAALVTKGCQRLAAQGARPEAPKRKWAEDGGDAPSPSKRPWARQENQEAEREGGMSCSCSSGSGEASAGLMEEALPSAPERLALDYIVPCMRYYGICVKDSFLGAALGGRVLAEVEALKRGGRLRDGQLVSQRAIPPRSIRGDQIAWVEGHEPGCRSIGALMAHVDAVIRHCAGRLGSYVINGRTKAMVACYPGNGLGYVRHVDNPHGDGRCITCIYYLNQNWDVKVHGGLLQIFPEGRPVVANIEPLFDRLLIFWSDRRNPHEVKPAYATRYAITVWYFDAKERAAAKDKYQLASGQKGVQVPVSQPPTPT

Row | Compound | Selectivity of PHD1 over PHD2
1 | O=C(NC[C@H](O)C(=O)O)c1ncc(-c2ccc3ccccc3c2)cc1O [Compound 7, (S)-2-hydroxy-3-(3-hydroxy-5-(naphthalen-2-yl)picolinamido)propanoic acid] | ~16 fold
2 | O=C(NC[C@H](O)C(=O)O)c1ncc(-c2cccc(Cl)c2)cc1O [Compound 6, (S)-3-(5-(3-chlorophenyl)-3-hydroxypicolinamido)-2-hydroxypropanoic acid] | ~11 fold
3 | O=C(O)CC1(NC(=O)c2ncc(-c3cnn(-c4ccccc4)c3)cc2O)CC1 [Compound 15, 2-(1-(3-hydroxy-5-(1-phenyl-1H-pyrazol-4-yl)picolinamido)cyclopropyl)acetic acid] | ~10 fold
4 | O=C(O)CC1(NC(=O)c2ncc(-c3cnn(-c4ccccc4)c3)cc2O)CCC1 [Compound 16, 2-(1-(3-hydroxy-5-(1-phenyl-1H-pyrazol-4-yl)picolinamido)cyclobutyl)acetic acid] | ~2 fold
5 | O=C(NCC1(C(=O)O)CCOCC1)c1ncc(-c2cnn(-c3ccccc3)c2)cc1O [Compound 14, 4-((3-hydroxy-5-(1-phenyl-1H-pyrazol-4-yl)picolinamido)methyl)tetrahydro-2H-pyran-4-carboxylic acid] | ~51 fold
6 | O=C(NCC1(C(=O)O)CCC1)c1ncc(-c2ccc3ccccc3c2)cc1O [Compound 2, 1-((3-hydroxy-5-(naphthalen-2-yl)picolinamido)methyl)cyclobutane-1-carboxylic acid] | ~1258 fold
7 | O=C(NC[C@@H](O)C(=O)O)c1ncc(-c2cccc(Cl)c2)cc1O [Compound 9, (R)-3-(5-(3-chlorophenyl)-3-hydroxypicolinamido)-2-hydroxypropanoic acid] | ~13 fold
8 | O=C(NCC1(C(=O)O)CCCC1)c1ncc(-c2cnn(-c3ccccc3)c2)cc1O [Compound 17, 1-((3-hydroxy-5-(1-phenyl-1H-pyrazol-4-yl)picolinamido)methyl)cyclopentane-1-carboxylic acid] | ~8 fold
9 | O=C(NCC1(C(=O)O)CCCCC1)c1ncc(-c2cnn(-c3ccccc3)c2)cc1O [Compound 13, 1-((3-hydroxy-5-(1-phenyl-1H-pyrazol-4-yl)picolinamido)methyl)cyclohexane-1-carboxylic acid] | ~2 fold
10 | O=C(NCC1(C(=O)O)CC1)c1ncc(-c2cccc(Cl)c2)cc1O [Compound 3, 1-((5-(3-chlorophenyl)-3-hydroxypicolinamido)methyl)cyclopropane-1-carboxylic acid] | ~338 fold
11 | O=C(NC[C@@H](O)C(=O)O)c1ncc(-c2cnn(-c3ccccc3)c2)cc1O [Compound 11, (R)-2-hydroxy-3-(3-hydroxy-5-(1-phenyl-1H-pyrazol-4-yl)picolinamido)propanoic] | ~42 fold
12 | O=C(NCC1(C(=O)O)CCC1)c1ncc(-c2cccc(Cl)c2)cc1O [Compound 4, 1-((5-(3-chlorophenyl)-3-hydroxypicolinamido)methyl)cyclobutane-1-carboxylic acid] | ~6 fold
13 | O=C(NCC1(C(=O)O)CCC1)c1ncc(-c2cnn(-c3ccccc3)c2)cc1O [Compound 12, 1-((3-hydroxy-5-(1-phenyl-1H-pyrazol-4-yl)picolinamido)methyl)cyclobutane-1-carboxylic acid] | ~36 fold
14 | O=C(NC[C@@H](O)C(=O)O)c1ncc(-c2ccc3ccccc3c2)cc1O [Compound 8, (R)-2-hydroxy-3-(3-hydroxy-5-(naphthalen-2-yl)picolinamido)propanoic acid] | ~100 fold
15 | O=C(NCC1(C(=O)O)CC1)c1ncc(-c2cnn(-c3ccccc3)c2)cc1O [Compound 5, 1-((3-hydroxy-5-(1-phenyl-1H-pyrazol-4-yl)picolinamido)methyl)cyclopropane-1-carboxylic acid] | ~61 fold
16 | O=C(NC[C@H](O)C(=O)O)c1ncc(-c2cnn(-c3ccccc3)c2)cc1O [Compound 10, (S)-2-hydroxy-3-(3-hydroxy-5-(1-phenyl-1H-pyrazol-4-yl)picolinamido)propanoic acid] | ~29 fold
17 | O=C(NCC1(C(=O)O)CC1)c1ncc(-c2ccc3ccccc3c2)cc1O [Compound 1, 1-((3-hydroxy-5-(naphthalen-2-yl)picolinamido)methyl)cyclopropane-1-carboxylic acid] | ~219 fold
